The text below walks through data of patent US20180207094A1, “IMPROVED TOPICAL KETOPROFEN FORMULATIONS” (Elliptical Therapeutics, LLC, priority 2015, published 2018).

The conditions of data set [1]: reported; cited from earlier work.
The test system of the next data set is New Zealand rabbits. The note with it: rabbit, in vivo.

SMILES strings stand for the structures.

`C[C@H](C(=O)O)c1cccc(C(=O)c2ccccc2)c1` (single isomer, unassigned) [S-enantiomer]: the “potency relative to the racemate” value in data set [1] is listed as “approximately twice as potent as the racemate”. On to `CCCCCCCCCCCCOS(=O)(=O)[O-].[Na+]` [SDS 5%, sodium dodecyl sulfate], for which, in the data set on New Zealand rabbits, the “Overall Edema Score” value worked out at 0.60 and the “Overall Erythema Score” value stood at 0.20. `C[C@@H](C(=O)O)c1cccc(C(=O)c2ccccc2)c1` (single isomer, unassigned) [R-enantiomer]: in data set [1], the “anti-inflammatory and antipyretic activities” value is on record as “little or no”.
